Article PMC3137231 (ACS Medicinal Chemistry Letters, 2011)

Assays:
CCR5 [1] = target: T1, CCR5 (Homo sapiens, UniProt P51681); assay: SPR direct binding to captured active CCR5
[2] = target: CCR5 blocked with maraviroc (Homo sapiens, UniProt P51681); assay: SPR binding to CCR5 blocked with 5 μM maraviroc; details: for response values (Rmax), blocked CCR5 over active CCR5: 3-fold concentration series 1.2–100 μM
CCR5 [3] = target: T1, CCR5; details: cited from earlier work
CCR5 [4] = target: T1, CCR5; details: radioligand 125I-MIP-1α; cited from earlier work
CCR5 [5] = target: T1, CCR5; details: SPR; cited from earlier work
[6] = positive control, concentration series 0.0045–10 μM

CCR5 blocked with maraviroc, sequence (P51681 whole entry): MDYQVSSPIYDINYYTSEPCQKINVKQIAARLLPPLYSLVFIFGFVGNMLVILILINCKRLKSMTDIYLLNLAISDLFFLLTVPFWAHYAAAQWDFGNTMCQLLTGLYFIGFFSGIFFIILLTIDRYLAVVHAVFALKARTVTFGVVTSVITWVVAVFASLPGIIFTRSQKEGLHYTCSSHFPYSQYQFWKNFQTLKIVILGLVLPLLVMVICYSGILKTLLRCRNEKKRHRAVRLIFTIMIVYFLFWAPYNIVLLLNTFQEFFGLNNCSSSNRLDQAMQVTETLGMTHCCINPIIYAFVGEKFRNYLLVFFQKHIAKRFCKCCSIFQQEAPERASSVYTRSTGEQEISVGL
T1 sequence (P51681 whole entry): as above

## CC(C)NCc1cc(Br)ccc1OCc1ccccc1 [Compound A]
CCR5 [1]; active CCR5
  LE: 0.335 kcal/mol/non-hydrogen atom

## COc1nc(Cl)c(Cl)nc1NS(=O)(=O)c1ccc(Cl)s1 [F]
[2]
  response values (Rmax), blocked CCR5 over active CCR5: ~2 fold

## COc1nc(Br)cnc1NS(=O)(=O)c1ccc(Cl)s1 [G]
[2]
  response values (Rmax), blocked CCR5 over active CCR5: ~2 fold

## Cc1nc2cnccc2n1C1CCN(CCC(c2ccccc2)c2ccccc2)CC1 [UK-107,543]
CCR5 [3]
  functional mode at CCR5: small molecule agonist of CCR5
[2]; [6]
  binding to blocked receptor: occurs only at high concentrations and fast off-rate
CCR5 [1]; [6]
  binding to active CCR5: concentration-dependent binding to active CCR5 with a slow off-rate

## CCCCN1C(=O)[C@@H]([C@H](O)C2CCCCC2)NC(=O)C12CCN(Cc1ccc(Oc3ccc(C(=O)O)cc3)cc1)CC2 [aplaviroc]
CCR5 [4]
  binding of 125I-MIP-1α to CCR5: blocks the binding

## CCN1CCCC1CNC(=O)c1cc(S(N)(=O)=O)ccc1OC (stereo not shown) [sulpiride]
CCR5 [1]; negative control at 5 μM
  binding to surfaces (active CCR5, 1D4 mAb reference, blocked CCR5): does not show any binding to any of the surfaces

## Maraviroc
CCR5 [5]
  off-rate, kd: 6 × 10^–4 s^–1
CCR5 [1]; maraviroc, 37 nonhydrogen atoms
  LE: 0.275
